Read-outs that look alike come from different tables or passages of the source.
Columns and labels:
Assay type in all cases: in vivo
Oryza sativa (ORYSA) [1] = details: crop plant compatibility
Method in brief: (§1)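 Visual rating (% effect vs. untreated plants; 100% = plant death) made about 3 weeks after treatment. Plants had been sprayed at one-leaf stage, 2–3 weeks post-sowing, with aqueous WP/EC preparations containing 0.5% additive, 600 l/ha water volume; a, b, c mark dose levels.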

Zea mays (ZEAMX) [2] = details: for Post-emergence action against ZEAMX in % (crop plant compatibility): 20 g/ha, effect in comparison to untreated controls; for Post-emergence action against ZEAMX in %: crop plant compatibility, effect vs untreated controls
Method in brief: as §1

Setaria viridis (SETVI) = assay: Pre-emergence herbicidal action against SETVI
Method in brief: (§2)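 Read-out is visual percent damage relative to untreated pots, with 100% meaning dead plants and 0% meaning no difference, assessed roughly three weeks after treatment. Compounds were applied pre-emergence to the covering soil at up to 320 g/ha.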

Lolium rigidum (LOLRI) [3] = assay: Post-emergence herbicidal action against LOLRI; details: dosage 80 g/ha
Method in brief: (§3)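 Rates were 320 g/ha or below, applied as aqueous WP/EC spray with 0.5% additive (600 l/ha) onto one-leaf-stage plants. About 3 weeks later in the greenhouse, damage was scored visually against untreated plants on a 0–100% scale, where 100% means plants died.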

[4] = test system: Verconica persica (VERPE); assay: Pre-emergence herbicidal action against VERPE
Method in brief: as §2

Avena fatua (AVEFA) [5] = assay: Post-emergence herbicidal action against AVEFA; details: 80 g/ha, visual rating about 3 weeks after treatment
Method in brief: as §3

[6] = test system: Polygonum convolvulus (POLCO); assay: Pre-emergence herbicidal action against POLCO
Method in brief: as §2

[7] = test system: Matricaria inodora (MATIN); assay: Pre-emergence herbicidal action against MATIN; details: dosage 320 g/ha
Method in brief: as §2

[8] = test system: Echinochloa crus-galli (ECHCG); assay: Post-emergence herbicidal action against ECHCG; details: dosage 80 g/ha
Method in brief: as §3

Lolium rigidum (LOLRI) [9] = assay: Pre-emergence herbicidal action against LOLRI; details: dosage 320 g/ha
Method in brief: as §2

Avena fatua (AVEFA) [10] = assay: Pre-emergence herbicidal action against AVEFA; details: 320 g/ha, visual scoring after about 3 weeks vs untreated controls
Method in brief: as §2

[11] = test system: Echinochloa crus-galli (ECHCG); assay: Pre-emergence herbicidal action against ECHCG; details: dosage 320 g/ha
Method in brief: as §2

[12] = test system: Alopecurus myosuroides (ALOMY); assay: Pre-emergence herbicidal action against ALOMY; details: scored visually after about 3 weeks, 100% = plants have died
Method in brief: as §2

[13] = test system: Amaranthus retroflexus (AMARE); assay: Pre-emergence herbicidal action against AMARE; details: visual scoring after about 3 weeks vs untreated controls
Method in brief: as §2

Viola tricolor (VIOTR) [14] = assay: Pre-emergence herbicidal action against VIOTR
Method in brief: as §2

Brassica napus (BRSNW) = details: 80 g/ha, crop plant compatibility, in comparison to untreated controls
Method in brief: (§4)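 Scoring: visual, % of untreated control, about 3 weeks after a pre-emergence application to the soil surface. Application used WP or EC formulations diluted in water with 0.5% additive at 600 l/ha; dosage levels are marked by suffixes a, b and c.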

Zea mays (ZEAMX) [15] = details: pre-emergence, 80 g/ha, crop plant compatibility, in comparison to untreated controls
Method in brief: as §4

[16] = test system: Alopecurus myosuroides (ALOMY); assay: Post-emergence herbicidal action against ALOMY; details: 80 g/ha, visual rating about 3 weeks after treatment vs untreated controls (100% = plants have died, 0% = like control plants)
Method in brief: as §3

Viola tricolor (VIOTR) [17] = assay: Post-emergence herbicidal action against VIOTR; details: 80 g/ha
Method in brief: as §3

[18] = test system: Triticum aestivum (TRZAS); details: crop plant compatibility, 80 g/ha, effect vs untreated controls
Method in brief: as §1

[19] = test system: Amaranthus retroflexus (AMARE); assay: Post-emergence herbicidal action against AMARE; details: 320 g/ha, visual rating about 3 weeks after treatment
Method in brief: as §3

[20] = test system: Triticum aestivum (TRZAS); details: pre-emergence, crop plant compatibility, in comparison to untreated controls
Method in brief: as §4

Oryza sativa (ORYSA) [21] = details: pre-emergence, crop plant compatibility, in comparison to untreated controls
Method in brief: as §4

[22] = 20 g/ha, effect vs untreated controls
[23] = 80 g/ha, effect in comparison to untreated controls

Row | Post-emergence action against ORYSA in % (Oryza sativa (ORYSA) [1]; [22]) [%] | Post-emergence action against ORYSA in % (Oryza sativa (ORYSA) [1]; [23]) [%] | Post-emergence action against ZEAMX in % (crop plant compatibility) (Zea mays (ZEAMX) [2]) [%] | Post-emergence action against ZEAMX in % (Zea mays (ZEAMX) [2]; 80 g/ha) [%] | Pre-emergence action against BRSNW in % (Brassica napus (BRSNW)) [%] | Pre-emergence action against ZEAMX in % (Zea mays (ZEAMX) [15]) [%] | SMILES | Pre-emergence action against SETVI in % (Setaria viridis (SETVI); dosage 320 g/ha) [%] | Post-emergence action against LOLRI in % (Lolium rigidum (LOLRI) [3]) [%] | Pre-emergence action against VERPE in % ([4]; dosage 320 g/ha) [%] | Post-emergence action against AVEFA in % (Avena fatua (AVEFA) [5]) [%] | Pre-emergence action against LOLRI in % (Lolium rigidum (LOLRI) [9]) [%] | Pre-emergence action against AVEFA in % (Avena fatua (AVEFA) [10]) [%] | Pre-emergence action against ECHCG in % [11] [%] | Pre-emergence action against ALOMY ([12]; 320 g/ha) [%] | Pre-emergence action against AMARE in % ([13]; 320 g/ha) [%] | Pre-emergence action against VIOTR in % (Viola tricolor (VIOTR) [14]; 320 g/ha, Viola tricolor) [%] | Pre-emergence action against VIOTR in % (Viola tricolor (VIOTR) [14]; dosage 80 g/ha) [%] | Post-emergence action against ALOMY in % [16] [%] | other results
1 | 0 | 10 | 10 | 20 | 20 | 10 | COC(=O)[C@@H](C)Oc1nn(-c2ncccc2Cl)c(-c2ccc(F)nc2)c1Br [Example I-24] | 90 | 90 | 100 | 90 | 100 | 100 | 100 | 100 | 100 | 100 | 90 | 90 | Pre-emergence action against VERPE in % ([4]; dosage 80 g/ha): 80%; Pre-emergence action against POLCO in % ([6]; dosage 80 g/ha): 90%; Pre-emergence action against POLCO in % ([6]; dosage 320 g/ha): 90%; Pre-emergence action against MATIN in % [7]: 90%; Post-emergence action against ECHCG in % [8]: 80%; Pre-emergence action against ALOMY ([12]; 80 g/ha): 100%; Pre-emergence action against AMARE in % ([13]; 80 g/ha): 90%
2 | 0 | 10 | 10 | 10 | 10 |  | CCOC(=O)C(C)Oc1nn(-c2ccccn2)c(-c2ccc(F)nc2)c1I (stereo not drawn) [Example I-101] | 100 | 90 | 100 | 80 | 100 | 90 | 90 | 100 | 100 | 100 | 80 | 90 | Pre-emergence action against SETVI in % (Setaria viridis (SETVI); dosage 80 g/ha): 90%; Post-emergence action against VIOTR in % (Viola tricolor (VIOTR) [17]): 80%
3 |  | 0 |  | 10 |  | 20 | O=C(O)COc1nn(-c2ccnc(F)c2)c(-c2ccc(F)nc2)c1Br [III-02] | 80 |  |  |  |  |  |  |  | 80 |  |  |  | Post-emergence action against TRZAS in % [18]: 20%; Post-emergence action against ORYSA in % (Oryza sativa (ORYSA) [1]; 320 g/ha, effect in comparison to untreated controls): 20%; Post-emergence action against ZEAMX in % (Zea mays (ZEAMX) [2]; 320 g/ha): 20%; Post-emergence action against AMARE in % [19]: 80%; Pre-emergence action against TRZAS in % ([20]; 80 g/ha): 0%; Pre-emergence action against TRZAS in % ([20]; 320 g/ha): 20%; Pre-emergence action against ORYSA in % (Oryza sativa (ORYSA) [21]; 80 g/ha): 0%; Pre-emergence action against ORYSA in % (Oryza sativa (ORYSA) [21]; 320 g/ha): 0%
